Data reported in publication PMC11240139, “Exploring the antitumor potential of novel quinoline derivatives via tubulin polymerization inhibition in breast cancer; design, synthesis and molecular docking” (RSC Advances, 2024).

Tests used:
RXF 393 (renal cancer) = assay: NCI-60 SRB cytotoxicity screen; type: cell-based; settings: Homo sapiens; RXF 393, single dose 10 μM; read-out: growth inhibition (GI%)
SW-620 (colon cancer) = assay: NCI-60 SRB cytotoxicity screen; type: cell-based; settings: Homo sapiens; SW-620, single dose 10 μM; read-out: growth inhibition (GI%)
HCC-2998 (colon cancer) = assay: NCI-60 SRB cytotoxicity screen; type: cell-based; settings: Homo sapiens; HCC-2998, single dose 10 μM; read-out: growth inhibition (GI%)
[1] = tested on: EKVX (non-small cell lung cancer); assay: NCI-60 SRB cytotoxicity screen; type: cell-based; settings: Homo sapiens, single dose 10 μM, read-out: growth inhibition (GI%)
[2] = tested on: NCI-H460 (non-small cell lung cancer); assay: NCI-60 SRB cytotoxicity screen; type: cell-based; settings: Homo sapiens; NCI-H460, single dose 10 μM; read-out: growth inhibition (GI%)
RPMI-8226 (leukemia) = assay: NCI-60 SRB cytotoxicity screen; type: cell-based; settings: Homo sapiens; RPMI-8226, single dose 10 μM; read-out: growth inhibition (GI%)
SK-MEL-2 (melanoma) = assay: NCI-60 SRB cytotoxicity screen; type: cell-based; settings: Homo sapiens; SK-MEL-2, single dose 10 μM; read-out: growth inhibition (GI%)
PC-3 (prostate cancer) = assay: NCI-60 SRB cytotoxicity screen; type: cell-based; settings: PC-3, single dose 10 μM; read-out: growth inhibition (GI%)
SR (leukemia) = assay: NCI-60 SRB cytotoxicity screen; type: cell-based; settings: single dose 10 μM; for inhibition at 10 µM: read-out: growth inhibition (GI%)
SK-OV-3 (ovarian cancer) = assay: NCI-60 SRB cytotoxicity screen; type: cell-based; settings: Homo sapiens; SK-OV-3, single dose 10 μM; read-out: growth inhibition (GI%)
MALME-3M (melanoma) = assay: NCI-60 SRB cytotoxicity screen; type: cell-based; settings: Homo sapiens, single dose 10 μM, read-out: growth inhibition (GI%)
[3] = tested on: HOP-92 (non-small cell lung cancer); assay: NCI-60 SRB cytotoxicity screen; type: cell-based; settings: Homo sapiens; HOP-92, single dose 10 μM; read-out: growth inhibition (GI%)
[4] = tested on: A549/ATCC (non-small cell lung cancer); assay: NCI-60 SRB cytotoxicity screen; type: cell-based; settings: Homo sapiens, single dose 10 μM, read-out: growth inhibition (GI%)
HL-60(TB) (leukemia) = assay: NCI-60 SRB cytotoxicity screen; type: cell-based; settings: Homo sapiens, single dose 10 μM, read-out: growth inhibition (GI%)
TK-10 (renal cancer) = assay: NCI-60 SRB cytotoxicity screen; type: cell-based; settings: Homo sapiens; TK-10, single dose 10 μM; read-out: growth inhibition (GI%)
UACC-257 (melanoma) = assay: NCI-60 SRB cytotoxicity screen; type: cell-based; settings: Homo sapiens; UACC-257, single dose 10 μM; read-out: growth inhibition (GI%)
MCF7 (breast cancer) = assay: NCI-60 SRB cytotoxicity screen; type: cell-based; settings: Homo sapiens; MCF7, single dose 10 μM; read-out: growth inhibition (GI%)
[5] = tested on: HOP-62 (non-small cell lung cancer); assay: NCI-60 SRB cytotoxicity screen; type: cell-based; settings: Homo sapiens; HOP-62, single dose 10 μM; read-out: growth inhibition (GI%)
KM12 (colon cancer) = assay: NCI-60 SRB cytotoxicity screen; type: cell-based; settings: Homo sapiens; KM12, single dose 10 μM; read-out: growth inhibition (GI%)
786-0 (renal cancer) = assay: NCI-60 SRB cytotoxicity screen; type: cell-based; settings: Homo sapiens; 786-0, single dose 10 μM; read-out: growth inhibition (GI%)
CAKI-1 (renal cancer) = assay: NCI-60 SRB cytotoxicity screen; type: cell-based; settings: Homo sapiens; CAKI-1, single dose 10 μM; read-out: growth inhibition (GI%)
SK-MEL-5 (melanoma) = assay: NCI-60 SRB cytotoxicity screen; type: cell-based; settings: Homo sapiens; SK-MEL-5, single dose 10 μM; read-out: growth inhibition (GI%)
OVCAR-4 (ovarian cancer) = assay: NCI-60 SRB cytotoxicity screen; type: cell-based; settings: Homo sapiens; OVCAR-4, single dose 10 μM; read-out: growth inhibition (GI%)
UACC-62 (melanoma) = assay: NCI-60 SRB cytotoxicity screen; type: cell-based; settings: Homo sapiens; UACC-62, single dose 10 μM; read-out: growth inhibition (GI%)
MDA-MB-435 (melanoma) = assay: NCI-60 SRB cytotoxicity screen; type: cell-based; settings: Homo sapiens, MDA-MB-435, read-out: growth inhibition (GI%)
BT-549 (breast cancer) = assay: NCI-60 SRB cytotoxicity screen; type: cell-based; settings: Homo sapiens; BT-549, single dose 10 μM; read-out: growth inhibition (GI%)
SF-295 (CNS cancer) = assay: NCI-60 SRB cytotoxicity screen; type: cell-based; settings: Homo sapiens; SF-295, single dose 10 μM; read-out: growth inhibition (GI%)
[6] = tested on: NCI-H522 (non-small cell lung cancer); assay: NCI-60 SRB cytotoxicity screen; type: cell-based; settings: Homo sapiens; NCI-H522, single dose 10 μM; read-out: growth inhibition (GI%)
HCT-15 (colon cancer) = assay: NCI-60 SRB cytotoxicity screen; type: cell-based; settings: Homo sapiens; HCT-15, single dose 10 μM; read-out: growth inhibition (GI%)
ACHN (renal cancer) = assay: NCI-60 SRB cytotoxicity screen; type: cell-based; settings: Homo sapiens, single dose 10 μM, read-out: growth inhibition (GI%)

SMILES	inhibition at 10 µM (RXF 393 (renal cancer)) [%]	inhibition at 10 µM (SW-620 (colon cancer)) [%]	inhibition at 10 µM (HCC-2998 (colon cancer)) [%]	inhibition at 10 µM [1] [%]	inhibition at 10 µM [2] [%]	inhibition at 10 µM (RPMI-8226 (leukemia)) [%]	inhibition at 10 µM (SK-MEL-2 (melanoma)) [%]	inhibition at 10 µM (PC-3 (prostate cancer)) [%]	inhibition at 10 µM (SR (leukemia)) [%]	inhibition at 10 µM (SK-OV-3 (ovarian cancer)) [%]	inhibition at 10 µM (MALME-3M (melanoma)) [%]	inhibition at 10 µM [3] [%]	inhibition at 10 µM [4] [%]	melting point [°C]	inhibition at 10 µM (HL-60(TB) (leukemia)) [%]	inhibition at 10 µM (TK-10 (renal cancer)) [%]	inhibition at 10 µM (UACC-257 (melanoma)) [%]	inhibition at 10 µM (MCF7 (breast cancer)) [%]	inhibition at 10 µM [5] [%]	inhibition at 10 µM (KM12 (colon cancer)) [%]	also measured
CCc1cccc2cc(C=CC(=O)c3ccc(OC)c(OC)c3)c(Cl)nc12 [Compound 3b, 3-(2-Chloro-8-ethylquinolin-3-yl)-1-(3,4-dimethoxyphenyl)prop-2-en-1-one]	22.1	72.2	17.7	< 10	27.7	56.2	< 10	32	80.1	< 10	< 10	27.4	43.5	135 to 137	61	< 10	< 10	37.1	< 10	23.5	growth inhibition (GI%) (SR (leukemia)): 80.06%; inhibition at 10 µM (786-0 (renal cancer)): 25.7%; inhibition at 10 µM (CAKI-1 (renal cancer)): 40.2%; inhibition at 10 µM (SK-MEL-5 (melanoma)): 23.2%; inhibition at 10 µM (OVCAR-4 (ovarian cancer)): 42.3%; inhibition at 10 µM (UACC-62 (melanoma)): 35.9%; inhibition at 10 µM (MDA-MB-435 (melanoma)): 17.1%; inhibition at 10 µM (BT-549 (breast cancer)): 50.3%; inhibition at 10 µM (SF-295 (CNS cancer)): 21.8%; inhibition at 10 µM [6]: 41.5%; inhibition at 10 µM (HCT-15 (colon cancer)): 20.4%; inhibition at 10 µM (ACHN (renal cancer)): 24.5%
CCc1cccc2cc(-c3cc(-c4ccc(OC)cc4)[nH]c(=S)c3C#N)c(Cl)nc12 [Compound 5a, 4-(2-Chloro-8-ethylquinolin-3-yl)-6-(4-methoxyphenyl)-2-thioxo-1,2-dihydropyridine-3-carbonitrile]	20.6	< 10	< 10	10.3	< 10	15.7	< 10	< 10	11.6	< 10	< 10	36.2	< 10	290 to 292	14.9	< 10	< 10	20.8	< 10	< 10	inhibition at 10 µM (786-0 (renal cancer)): < 10%; inhibition at 10 µM (CAKI-1 (renal cancer)): 44.7%; inhibition at 10 µM (SK-MEL-5 (melanoma)): < 10%; inhibition at 10 µM (OVCAR-4 (ovarian cancer)): 24.5%; inhibition at 10 µM (UACC-62 (melanoma)): 20.5%; inhibition at 10 µM (MDA-MB-435 (melanoma)): < 10%; inhibition at 10 µM (BT-549 (breast cancer)): 20.4%; inhibition at 10 µM (SF-295 (CNS cancer)): 13.8%; inhibition at 10 µM [6]: 19.6%; inhibition at 10 µM (HCT-15 (colon cancer)): < 10%; inhibition at 10 µM (ACHN (renal cancer)): < 10%
